Measured values reported in ChEMBL document CHEMBL1141210, “Structure-based discovery of a new class of Hsp90 inhibitors” (Bioorg Med Chem Lett, 2005).

Assays:
Heat shock protein HSP90 = Heat shock protein HSP90 (Homo sapiens, UniProt P07900+P08238)
Description: Binding affinity to Hsp90 by fluorescent polarization assay

HCT-116 = assay: Inhibition of cell proliferation in HCT116 human colon cancer cell line; format: functional
BT-474 = assay: Inhibition of cell proliferation in BT474 human breast cancer cell line after 48 hr exposure; format: functional; details: BT-474, 48 h

SMILES	IC50 (Heat shock protein HSP90)	GI50 (HCT-116)	GI50 (BT-474)
CCc1ccc(S(=O)(=O)Nc2ccc(O)c(-c3c(O)ccc4ccccc34)c2)cc1	6.6 µM	–	–
O=S(=O)(Nc1ccc(O)c(-c2c(O)ccc3ccccc23)c1)c1ccc(Br)cc1	6.1 µM	–	–
Cc1cc(C)c(S(=O)(=O)Nc2ccc(O)c(-c3c(O)ccc4ccccc34)c2)cc1C	15.2 µM	–	–
O=S(=O)(Nc1ccc(O)c(-c2c(O)ccc3ccccc23)c1)c1cccs1	0.6 µM	59.8 µM	–
O=S(=O)(Nc1ccc(O)c(-c2c(O)ccc3ccccc23)c1)c1ccc(Cl)cc1	2.2 µM	27.8 µM	–
O=S(=O)(Nc1ccc(O)c(-c2c(O)ccc3ccccc23)c1)c1ccc(F)cc1	8.8 µM	–	–
O=S(=O)(Nc1ccc(O)c(-c2c(O)ccc3ccccc23)c1)c1cc(Cl)ccc1Cl	–	29 µM	34.9 µM
CC(C)(C)c1ccc(S(=O)(=O)Nc2ccc(O)c(-c3c(O)ccc4ccccc34)c2)cc1	26.4 µM	–	–
O=S(=O)(Nc1ccc(O)c(-c2c(O)ccc3ccccc23)c1)c1ccccc1	3.3 µM	–	–
C[C@@H]1C[C@H]2O[C@@H]2/C=C\C=C\C(=O)Cc2c(Cl)c(O)cc(O)c2C(=O)O1 [RADICICOL]	–	0.13 µM	–
C=CCNC1=C2C[C@@H](C)C[C@H](OC)[C@H](O)[C@@H](C)/C=C(\C)[C@H](OC(N)=O)[C@@H](OC)/C=C\C=C(/C)C(=O)NC(=CC1=O)C2=O [TANESPIMYCIN]	–	0.16 µM	–
